Here are results for 1 compound from patent US20250296942A1, “Phosphonate-Based Coordination Complexes and Methods of Preparation and Use Thereof” (University of Puerto Rico, priority 2021, published 2025).

Where two headings read alike, the source gives them in different places.

By viability is commonly meant a read-out of living cells in per cent, often relative to untreated cells. One may read the IC50 as the midpoint of a concentration-inhibition curve.

This series relates to human breast cancer MDA-MB-231 cell line. The series is described as follows: AlamarBlue cytotoxicity, RISE and nano-Ca@RISE, MDA-MB-231. The note with it: for viability at 35 µM / viability at 40 µM / viability at 45 µM / viability at 50 µM / IC50: Homo sapiens; for viability at 35 µM / viability at 40 µM / viability at 45 µM / viability at 50 µM: read-out: Relative cell viability (% RCL), MDA-MB-231. Format: cell-based. The procedure: Cell culture methods. The MDA-MB-231 cell line was incubated with DMEM, 1% Pen-Strep, and 10% FBS at 37° C. in 5% CO2. The hFOB 1.19 cell line was incubated with 1:1 DMEM:F-12, 0.3 mg/mL G418, and 10% FBS at 34° C. in 5% CO2. Cell passages were performed weekly at 80% of cell confluency, media was exchanged twice a week.
Cell treatments. Both cell lines were treated with RISE (control) and nano-Ca@RISE (experimental). […]. Both cell lines (MDA-MB-231 and hFOB 1.19) were seeded in 96 well plates at 2.5×10^5 cell/mL. The cells were incubated for 24 h at 37° C. (MDA-MB-231) and 34° C. (hFOB 1.19), respectively. After the initial incubation period, both cell lines were treated with 100 μL of the RISE solutions previously prepared, and incubation was performed for 24, 48, and 72 h at the respective incubation temperatures. For both cell lines, media (MDA-MB-231: DMEM, Pen-Strep) and (hFOB 1.19: DMEM, F-12, G418) were used with control groups. AlamarBlue® assay was utilized to determine cell proliferation, for this, 10% of AlamarBlue® solution in PBS was prepared. Finally, the media was removed from the 96 well plates, 100 μL of 10% AlamarBlue® solution was added, and the cells were incubated for 4 h at the same previously mentioned conditions. After the AlamarBlue® assay, the fluorescence (λexc=560 nm, λem=590 nm) was evaluated employing an Infinite M200 PRO Tecan Microplate Reader. […]. The nonlinear regression method using Graph Pad Prism 8 was applied to fit the dose-response curves (% cell live vs concentration) and determined the IC50 values for RISE.
[…]. Treatments at these concentrations were carried out at 24, 48, and 72 h for RISE and nano-Ca@RISE. The cell seeding and AlamarBlue® assay were completed as described above for the IC50 determination in both cell lines. […]. All experiments were performed in triplicates and the data was statistically treated using mean, standard deviation, and the coefficient of variation percentage (% CV).
Cell culture methods for the MDA-MB-231 cell line. This cell line was grown in Dulbecco's Modified Eagle's Medium (DMEM) supplemented with 10% fetal bovine serum (FBS) and 1% penicillin-streptomycin (Pen-Strep), incubated at 37° C. and 5% CO2. Cell passage and cell treatment were performed at 80% of cell confluency. The completed growth media was exchanged every two days.
Cell seeding. The MDA-MB-231 and hFOB 1.19 cell lines were seeded in 96 well plates at a density of 2.5×10^5 cells/mL, incubation was carried out for 24 h at 37° C. for MDA-MB-231 and 34° C. for osteoblast hFOB 1.19, in 5% CO2. The experiments were conducted in triplicates, three 96 well plates were made for each treatment period (24, 48, and 72 h).
Cell treatment. To determine the half-maximal inhibitory concentration (IC50), for both cell lines, two-fold serial dilutions of RISE (0-200 μM) were prepared. To assess the relative cell live (% RCL) were employed selected […] (50, 45, 40, and 35 μM) of RISE and nano-Ca@RISE for MDA-MB-231 and hFOB 1.19 cell lines. For this, after the seeding, 100 μL of RISE and nano-Ca@RISE were used to treat the cells. The control groups were treated with just media. Both cell lines were incubated for 24, 48, and 72 h after RISE and nano-Ca@RISE solutions were added.
AlamarBlue@assay. For both cell lines, after the 24, 48, and 72 h of treatment, the media was removed from the 96 well plates. Subsequently, 100 μL of 10% AlamarBlue® solution was added and incubation was carried out for 4 h. The fluorescence (λexc=570 nm, λem=590 nm) was measured employing an Infinite M200 PRO Tecan Microplate Reader. […]. The IC50 curves and the % RCL values were plotted using the Graph Pad Prism 8 program.
(In general: Resazurin is reduced to fluorescent resorufin, in cell work by metabolically active cells.)

As to `O=P(O)(O)C(O)(Cc1cccnc1)P(=O)(O)O` [RISE, Monosodium risedronate hemipentahydrate], the viability at 35 µM (MDA-MB-231, 24 h, 35 μM, 24 h) was determined as 101 ± 2%; the viability at 35 µM (MDA-MB-231, 48 h, 35 μM, 48 h) is 100 ± 2%; the viability at 35 µM (MDA-MB-231, 72 h, 35 μM, 72 h) was roughly 100%. For the same compound, the viability at 40 µM by setting is: (MDA-MB-231, 24 h, 40 μM, 24 h) 100 ± 2%; (MDA-MB-231, 48 h, 40 μM, 48 h) 100 ± 3%; (MDA-MB-231, 72 h, 40 μM, 72 h) 94 ± 1%. In addition, the viability at 45 µM is 100 ± 2% (MDA-MB-231, 24 h, 24 h); 98 ± 2% (MDA-MB-231, 48 h, 48 h); 94 ± 2% (MDA-MB-231, 72 h, 72 h). Besides, the viability at 50 µM runs as follows: (MDA-MB-231, 24 h, 24 h) 99 ± 2%; (MDA-MB-231, 48 h, 48 h) 97 ± 3%; (MDA-MB-231, 72 h, 72 h) 93 ± 2%. Further, the 50% inhibitory concentration (IC50) is greater than 200 µM (MDA-MB-231, 24 h); 175 ± 3 µM (MDA-MB-231, 48 h); 98 ± 3 µM (MDA-MB-231, 72 h). In addition, where the note is “MDA-MB-231, 35 μM, 72 h”, the “Relative cell viability (% RCL)” value is given as 96 ± 2%. Further, the “% RCL” value (MDA-MB-231, 40 μM, time not stated) is recorded as roughly 100%.
